According to patent US20070072815A1, “Methods and kits to increase the efficiency of oligonucleotide-directed nucleic acid sequence alteration” (priority 2004, published 2007):
“Also recorded” adds a separate entry of the source.

Assays:
[1] = test system: mutant eGFP gene in DLD-1-1 cells; assay: eGFP gene correction (oligonucleotide-directed sequence alteration) in DLD-1-1 cells, FACS readout; assay type: cell-based; details: for effect on correction when added after electroporation: recovery period, AraC 2-48 hrs, aphidicolin 6 μM at 2, 6 and 24 hrs
Experimental: Cell line and culture conditions: DLD-1 cells are obtained from ATCC (American Type Cell Culture, Manassas, Va.). DLD-1 integrated clone 1 (DLD-1-1) is obtained by integration of the vector pEGFP-N3 containing a single point mutation (TAG) in the eGFP gene, as described in copending U.S. patent application Ser. No. 10/986,418, filed Nov. 10, 2004 (“Mammalian Cell Lines for Detecting, Monitoring, and Optimizing Oligonucleotide-Mediated Chromosomal Sequence Alteration”). Cells are grown in RPMI 1640 medium with 2 mM glutamine, 4.5 g/L glucose, 10 mM HEPES, 1 mM sodium pyruvate and supplemented with 10% FBS. Cells are maintained at 5% CO2, 37° C. and under selection in 200 μg/ml G418 (Gibco, Invitrogen Co., Carlsbad, Calif.).
eGFP gene correction: Cells grown in complete medium supplemented with 10% FBS are trypsinized and harvested by centrifugation. The cell pellet is resuspended in serum-free medium at a density of 1×10^6 cells/100 μl and transferred to a 4 mm gap cuvette (Fisher Scientific, Pittsburgh, Pa.). The oligonucleotide is then added at a concentration of 4 μM and the cells are electroporated (LV, 250V, 13 msec, 2 pulses, 1 second interval) using a BTX ECM830 apparatus (BTX, Holliston, Mass.). The cells are then transferred to a 60 mm dish containing fresh medium supplemented with 10% FBS and incubated for 48 hrs at 37° C. before harvesting for FACS analysis.
The percentage of converted cells in a whole population is then calculated by CellQuest™ (Becton Dickinson) and GFP/PI programs. The correction efficiency is determined by dividing the number of eGFP positive cells by the number of cells analyzed in each experiment (usually 50,000 cells). Each clone is tested three times to determine the standard deviation of the correction efficiency, with standard deviation calculated using Microsoft Excel.
The experimental strategy involves the introduction of oligonucleotides into DLD-1-clone 1 cells by electroporation followed by phenotypic readout of the corrected eGFP gene, 48 hours later. The correcting oligonucleotide (EGFP3S/72NT) is 72 bases in length (72-mer), complementary to the non-transcribed strand of the mutant eGFP gene but designed to create a single mismatch in the third base of codon 67 (see FIG. 1A). It directs conversion of a TAG→TAC codon which enables phenotypic expression of eGFP, which can be detected by FACS. FIG. 1B outlines the sequence of the target gene, the 72-mer and a nonspecific 74-mer used as a control.
Oligonucleotide-Directed Sequence Alteration: The resulting synchronized populations of cells, and asynchronous controls, are grown in complete medium supplemented with 10% FBS and trypsinzed and harvested by centrifugation at 1500 rpm for 5 minutes. The cell pellet is resuspended in fresh serum-free medium at a density of 2×10^6 cells/100 μl. The entire cell suspension is mixed with 20 μg of EGFP/72NT and transferred into a 4 mm gap cuvette (Fisher Scientific, Pittsburgh, Pa., USA) followed by electroporation with two 250V pulses, each 13 ms in duration, with one second between pulses, unipolar.
Cells are incubated at room temperature for 30 min. […] Frequency of converted cells are calculated by CellQuest™ and GFP/PI programs.
Double Thymidine Block: Cells are synchronized in G1 or at the G1/S border by a double thymidine block. Twenty-four hours prior to the addition of any agent (HU, etc.), cells are plated at a density of 0.5×10^6 cells per 100 mm dish, followed by incubation in 2 mM thymidine (Sigma) for 16 hrs, washed and released in fresh medium for 10 hrs, then incubated in 2 mM thymidine for an additional 15 hrs.
FACS is then used to analyze 50,000 cells from each population to determine the percentage of cells expressing functional eGFP, as described in Example 1.

DLD-1-1 cells [2] = assay: BrdU incorporation (actively replicating forks); assay type: cell-based; details: for BrdU uptake (cells actively incorporating DNA bases): 24 hour treatment, 500 μM ddC, ddI or AraC (FIG. 17B)
Experimental: (§1) For cell cycle analysis, 1×10^6 cells are plated 24 hrs before the treatment with drugs and after 24 hrs of treatment, cells are trypsinized, resuspended in 300 μl cold PBS and fixed by adding 700 μl cold ethanol. Cells are then resuspended in 1 ml of PBS containing 500 µg/ml RNaseA and […] propidium iodide and analyzed for DNA content.
(§2) The resulting cells are then either analyzed by FACS, or the percentage of cells in S phase is determined by BrdU incorporation. FIG. 8 presents the results of both sets of experiments.
As stated above, the lack of stimulation observed in cells treated with AraC could be explained by the reduced number of cells passing through S phase or the absence of actively replicating forks. If true, we might predict that a rise in the gene repair frequency would appear if the cells are released from the AraC block and replication forks are allowed to restart prior to the electroporation of the oligonucleotide. We test this prediction by treating the cells with AraC for 24 hrs and then releasing them by washing out the drug at specific times. We measure the level of BrdU incorporation at the time of electroporation and evaluate the frequency of correction 48 hrs later.

DLD-1-1 cells [3] = assay: Cell cycle analysis (DNA content by FACS), cells in S phase; assay type: cell-based
Experimental: as §1
The effect of cell cycle on the efficiency of ODSA is assessed by synchronizing a population of DLD-1-1 cells with mimosine, which arrests cells in early S phase, and serum starvation. Cells are seeded at a density of 0.8×10^6 per 100 mm dish, attached for 20 hours and then cultured in RMPI-1640 medium containing 0.2% fetal bovine serum (FBS). These cells are grown for 48 hours followed by treatment with 0.1 mM mimosine (Sigma, St. Louis, Mo., USA) for 20 hours. Cell are washed twice with PBS and released at various times into fresh medium complemented with 10% FBS before electroporation. Cells are rinsed once with PBS, trypsinized and harvested by centrifugation and resuspended in PBS containing 10 μg/ml propidium iodide, 0.03% Triton-100 and 1 mg/ml RNase. Cells are incubated at room temperature for 1 hour before the measurement of DNA content by FACSCalibur™ flow cytometer. The percentage of cells at various stages of the cell cycle is determined by ModFit L™ software (Verity Software House, Inc., Topsham, Me., USA).
as §2

[4] = test system: α-galactosidase A (GLA) activity in Fabry's cell line DMN-1; assay: GLA activity in Fabry's cells after ODSA; assay type: cell-based, human
Source text: Cell line DMN-1, a human fibroblast cell line derived from a human patient with Fabry's disease, is obtained from the National Institutes of Health (NIH). These cells are used to measure the efficiency of correction of a mutant allele of α-galactosidase A (GLA) using methods of the present invention. The specific disease-causing mutation in the Fabry's cell line used herein is A143P, caused by a G→C mutation in the gene. See Branton et al., Medicine (Baltimore) (2002) 81(2): 122-38.
All four oligonucleotides are used to effect ODSA substantially as described in Example 1, with the exception that cells are transfected with oligonucleotides, rather than electroporated. Oligos are added at 5 μg, 10 μg or 30 μg per reaction. After ODSA is performed, cells are cultured and assayed for GLA activity according to the method of Brady, as described in Medin et al., Proc. Natl. Acad. Sci. (USA) (1996) 93:7917-22, the disclosure of which is incorporated herein by reference in its entirety. The GLA activity is used as a measure of gene correction by comparing the activities in treated versus untreated cultures. The correction efficiency is subsequently confirmed by sequencing of the locus of mutation in a number of treated cells.
[…] Unlike the experiments involving correction of eGFP in DLD-1-1 cells described in Example 1, however, certain of the agents (VPA, caffeine, TSA) in the experiments in this example are not added before transfection, but are instead added only after transfection, during the recovery period.
The means of introducing oligonucleotide into the target cells also differs from previous examples, with transfection in the presence of the transfection enhancing agent FuGENE™ 6 (FG) (Roche Diagnostics Corp., Indianapolis, Ind., USA) being used rather than electroporation. Each transfection reaction includes 100 μl of target cells and 12 μl of FG unless otherwise indicated, despite the fact that FG is not explicitly listed for each datapoint in the relevant figures. Otherwise the procedures used in the DLD-1-1 experiments and the Fabry's experiments are similar.
The results of a further series of experiments are shown at FIG. 15D, where the data are presented as GLA activity as nanomolar (nM) concentration of the product of the GLA assay generated per hour per unit protein concentration (as are the data in FIGS. D and E).

[5] = 24 hour treatment, 500 μM ddC, ddI or AraC (FIG. 17A)
[6] = 2-5 μM VPA in the recovery phase
[7] = serum starvation + mimosine, 8 hours after release

## C[C@@]1(CO)[C@H](O)CC[C@@]2(C)[C@H]1CC[C@H]1C[C@@H]3C[C@@]12CC[C@]3(O)CO [Aphidicolin, aphidicolin]
[1]
  effect on correction when added after electroporation: low level of correction

## Nc1ccn([C@@H]2O[C@H](CO)[C@@H](O)[C@@H]2O)c(=O)n1 [AraC, 1-β-D-arabinofuransylcytosine]
DLD-1-1 cells [2]
  BrdU uptake (cells actively incorporating DNA bases): essentially zero
DLD-1-1 cells [2]; AraC 24 hrs, then washed out
  time after release at which elevation in BrdU incorporation is observed: ≤ 2 h
[1]; AraC 5 μM to 250 μM, 24 hrs before electroporation
  effect on correction levels: no enhancement in correction levels; also recorded: significantly insignificant effect
[1]; AraC 24 hrs, then washed out before electroporation
  time post release at which gene repair activity reaches maximal level: 8 h
[1]
  effect on correction when added after electroporation: correction levels drop substantially
DLD-1-1 cells [3]; [5]
  cells in S phase: 26%
DLD-1-1 cells [3]; AraC at 20 μM and 250 μM
  reduction in S phase cells: 9%

## CC[C@@]1(O)C(=O)OCc2c1cc1n(c2=O)Cc2cc3ccccc3nc2-1 [CPT, camptothecin]
[4]; 7.5 nM CPT during recovery
  GLA activity versus no treatment control: approximately six-fold
[4]; 7.5 nM CPT during recovery, 49T/gg
  GLA activity: 26.84 nM product per hour per unit p
[4]; CPT 7.5 nM (FIG. 15D summary)
  effect on GLA activity: more than doubles GLA activity
[1]; CPT pretreatment at 30-100 nM
  effect on correction efficiency: triples correction efficiency

## CC(/C=C/C(=O)NO)=C\[C@@H](C)C(=O)c1ccc(N(C)C)cc1 [TSA, trichostatin A]
[4]; synchronized cells, 500 μM ddC, 4 mM caffeine or 100 ng/ml TSA during recovery period
  effect on ddC-enhanced GLA activity: eliminate the ability of 500 μM ddC to enhance GLA activity

## COc1cc([C@@H]2c3cc4c(cc3[C@@H](O[C@@H]3O[C@@H]5CO[C@@H](C)O[C@H]5[C@H](O)[C@H]3O)[C@H]3COC(=O)[C@H]23)OCO4)cc(OC)c1O [VP16, 4′-demethylepipodophyllotoxin-9-(4,6-O-ethylidene-beta-D-glucopyranoside)]
DLD-1-1 cells [2]; 24 hours, 1 mM HU or 3 μM VP16
  percentage of cells in S phase by BrdU: 56%
DLD-1-1 cells [3]; 24 hours, 1 mM HU or 3 μM VP16, FACS analysis
  cells in S-phase: 56%

## CCCC(CCC)C(=O)O [VPA, valproic acid]
[4]; 5 μM VPA during recovery period
  GLA activity versus untreated cells: over 20 fold
[4]; 5 μM VPA during recovery period after transfection with 49T/gg
  GLA activity: 98.71 nM product per hour per unit p
[4]; [6]
  GLA activity over untreated cells: 25 fold
  GLA activity versus cells treated identically without VPA: more than eight-fold

## O=c1[nH]cnc2c1ncn2[C@H]1CC[C@@H](CO)O1 [ddI, dideoxyinosine]
DLD-1-1 cells [2]
  BrdU uptake (cells actively incorporating DNA bases): no difference from non-treated cells
[1]; various dosages of ddI
  effect on gene correction: no significant increase in gene correction; also recorded: statistically insignificant effect
DLD-1-1 cells [3]; [5]
  cells in S phase: does not show an increase in the number of cells in S phase

## NC(Cn1ccc(=O)c(O)c1)C(=O)O (stereo not drawn) [mimosine]
[1]; [7]
  increase of correction efficiency versus asynchronous cells: 2.5 fold
DLD-1-1 cells [3]; serum starvation + 0.1 mM mimosine, 8 hours after release
  cells in S phase: 86%
DLD-1-1 cells [3]; [7]
  increase of proportion of cells in S phase versus asynchronous cells: 2.5 fold

## COc1cc(C=O)ccc1O [vanillin]
[1]; 1 mM vanillin, before or after electroporation, with or without ddC
  effect on correction efficiency: no effect on correction efficiency; also recorded: does not inhibit gene repair activity
[1]; inhibitor added with ddC before electroporation (FIG. 20)
  effect on ddC-stimulated gene repair: statistically unchanged
